Test results reported in US5955632A, “Seco-d steroids active on the cardiovascular system, processes for their preparation and pharmaceutical compositions containing them” (Sigma-Tau Industrie Farmaceutiche Riunite S.p.A., priority 1996, dated 1999).
Structures can show the parent of a compound that is named as a salt.

Tests used:
[1] = test system: spontaneous hypertensive rats (MHS); test: effect of 5 week-treatment in spontaneous hypertensive rats (MHS) on the development of hypertension (tail cuff SBP and HR); format: in vivo, rat; settings: 1 mg/Kg/os daily in Methocel 0.5% w/v, 5 weeks; for SBP (systolic blood pressure): controls (Methocel) 172 +/- 3.5; for HR (heart rate): controls (Methocel) 380 +/- 9.0
Description: To test the antihypertensive activity the following test was used:
systolic blood pressure (SBP) and heart rate (HR) were measured, by the tail cuff method, in young prehypertensive male rats (MHS or SHR) strains before the development of hypertension (4 weeks of age) for recording the basal values of SBP. Groups of 7 rats were formed and subdivided in control and treated groups. The compound, suspended in Methocel 0.5% (w/v), was orally given daily for at least 5 weeks to the treated groups. The control group received only Methocel. SBP and HR were measured weekly 6 and 24 hrs after treatment. After 5 weeks of treatment, when hypertension was fully developed in the control group (9 weeks of age), washout was started for at least one week, to verify whether the treatment mantained blood pressure low or reestablished the basal values.
(Takeda K. et al., Japan J. Pharmacol., 1979, 29,171; Takeda K. et al. Japan J. Pharmacol., 1982, 32, 283; Richer C. et al. Eur. J. Pharmacol, 1978, 47,393).

Na^+,K^+ -ATPase [2] = target: T1, Na^+,K^+ -ATPase (Canis lupus familiaris, UniProt P50997); test: displacement of the specific ^3H-ouabain binding from the purified Na^+,K^+-ATPase receptor
T1 construct: from tissue; the cited Jorgensen 1974 method uses outer medulla of mammalian kidney (own knowledge)
Description: (§1) To test the affinity for the receptor site of the Na^+,K^+ -ATPase and the agonist or antagonist activity on the enzyme, the following tests were used:
a) displacement of the specific ^3 H-ouabain binding from the Na^+,K^+ -ATPase receptor purified according to Jorghensen (Jorghensen P., BBA, 1974, 356, 36) and Erdmann (Erdmann E. et al., Arzneim. Forsh, 1984, 34, 1314);

Na^+,K^+ -ATPase [3] = target: T1, Na^+,K^+ -ATPase; test: biochemical
Description: as §1
b) inhibition of the activity of the purified Na^+,K^+ -ATPase measured as % of hydrolysis of ^32 P-ATP in presence and in absence of the tested compound (Doucet A. et al., Am. J. Physiol., 1986, 251, F851).

[4] = ^3H-ouabain displacement, purified Na^+,K^+-ATPase, read-out: Binding ^3 H-Ouab. Displacement log IC50 (converted)
[5] = purified Na^+,K^+-ATPase, ^32P-ATP hydrolysis, read-out: Inhibitory Activity log IC50 (converted)

| SMILES | SBP (systolic blood pressure) [1] | HR (heart rate) [1] | IC50 (Na^+,K^+ -ATPase [2]; [4]) | IC50 (Na^+,K^+ -ATPase [3]; [5]) | IC50 (Na^+,K^+ -ATPase [2]) | IC50 (Na^+,K^+ -ATPase [3]) |
| --- | --- | --- | --- | --- | --- | --- |
| C[C@@H](C/C=N/OCCN)[C@@]1(C)CC[C@H]2[C@@H](CC[C@@H]3C[C@@H](O)CC[C@@]32C)C1=O [Comp. I-ae, E-17β-Methyl-15-[(2-aminoethoxy)imino]-5β-14,15-seco-3β-hydroxy-androstan-14-one oxalate] | 149 +/- 3.7 mm Hg | 370 +/- 11.2 beats/min. | – | – | – | – |
| C[C@@H](C/C=N/OCCN(C)C)[C@@]1(C)CC[C@H]2[C@@H](CC[C@@H]3C[C@@H](O)CC[C@@]32C)C1=O [Comp. I-ag, E-17β-Methyl-15-[(2-dimethylaminoethoxy)imino]-5β-14,15-seco-3β-hydroxy-androstan-14-one oxalate] | 154 +/- 4.8 mm Hg | 390 +/- 5.9 beats/min. | – | – | – | – |
| CC[C@H](/C=N/OCCN(C)C)[C@@]1(C)CC[C@H]2[C@@H](CC[C@@H]3C[C@@H](O)CC[C@@]32C)C1=O [Comp. I-ai, E-17β-2-[(2-Dimethylaminoethoxy)iminomethyl]-5β-14,15-seco-3β-hydroxy-androstan-14-one oxalate] | – | – | 3980 nM | 100 µM | – | – |
| CC[C@@H](/C=N/OCCN(C)C)[C@@]1(C)CC[C@H]2[C@@H](CC[C@@H]3C[C@@H](O)CC[C@@]32C)C1=O [Comp. I-ak, E-17β-2-[(2-Dimethylaminoethoxy)iminomethyl]-5β-14,15-seco-3β-hydroxy-androstan-14-one oxalate] | 153 +/- 6.3 mm Hg | 380 +/- 10.0 beats/min. | 501 nM | 7.94 µM | – | – |
| CC[C@@H](C/C=N/OCCN)[C@@]1(C)CC[C@H]2[C@@H](CC[C@@H]3C[C@@H](O)CC[C@@]32C)C1=O [Comp. I-ao, E-17α-2-[(2-Aminoethoxy)iminomethyl]-5β-14,15-seco-3β-hydroxy-androstan-14-one oxalate] | – | – | – | – | 39.8 nM | 0.2 µM |
| CC[C@H](C/C=N/OCCN(C)C)[C@@]1(C)CC[C@H]2[C@@H](CC[C@@H]3C[C@@H](O)CC[C@@]32C)C1=O [Comp. I-aq, E-17β-2-[(2-Dimethylaminoethoxy)iminomethyl]-5β-14,15-seco-3β-hydroxy-androstan-14-one oxalate] | – | – | – | – | 794 nM | 12.6 µM |
| CC[C@@H](C/C=N/OCCN(C)C)[C@@]1(C)CC[C@H]2[C@@H](CC[C@@H]3C[C@@H](O)CC[C@@]32C)C1=O [Comp. I-as, E-17α-2-[(2-Dimethylaminoethoxy)iminomethyl]-5β-14,15-seco-3β-hydroxy-androstan-14-one oxalate] | – | – | – | – | 100 nM | 1.26 µM |
| CC[C@@H](C/C=N/NC(=N)N)[C@@]1(C)CC[C@H]2[C@@H](CC[C@@H]3C[C@@H](O)CC[C@@]32C)C1=O [Comp. I-ay, E-17α-2-(2-Guanidinoiminoethyl)-5β-14,15-seco-3β-hydroxy-androstan-14-one oxalate] | – | – | 398 nM | 3.16 µM | – | – |
| CC[C@@H](C/C=C/C=N/OCCN(C)C)[C@@]1(C)CC[C@H]2[C@@H](CC[C@@H]3C[C@@H](O)CC[C@@]32C)C1=O [Comp. I-be, E,E-17α-4-[(2-Dimethylaminoethoxyimino)-2-butenyl]-5β-14,15-seco-3β-hydroxy-androstan-14-one oxalate] | 150 +/- 5.1 mm Hg | 384 +/- 7.9 beats/min. | 316 nM | 6.31 µM | – | – |
| CC[C@@H](C/C=N/OCCN)[C@@]1(C)CC[C@H]2[C@@H](CC[C@H]3C[C@@H](O)CC[C@@]32C)C1=O [Comp. I-bg, E-17α-2-[(2-Aminoethoxy)iminomethyl]-14,15-seco-3β-hydroxy-androstan-14-one oxalate] | 151 +/- 5.2 mm Hg | 388 +/- 9.0 beats/min. | – | – | 158 nM | 1 µM |
| CC[C@@H](C/C=N/OCCN(C)C)[C@@]1(C)CC[C@H]2[C@@H](CC[C@H]3C[C@@H](O)CC[C@@]32C)C1=O [Comp. I-bi, E-17α-2-[(2-Dimethylaminoethoxy)iminomethyl]-14,15-seco-3β-hydroxy-androstan-14-one oxalate] | – | – | – | – | 2000 nM | 10 µM |
